Measurements reported in patent US20230201174A1, “COMBINATION OF FINERENONE AND A SGLT2 INHIBITOR FOR THE TREATMENT AND/OR PREVENTION OF CARDIOVASCULAR AND/OR RENAL DISEASES” (BAYER AKTIENGESELLSCHAFT, priority 2020, published 2023).

How the values were obtained:
[1] = system: Wistar rats with activated renin-angiotensin-aldosterone system; assay: In vivo assay for detecting natriuretic activity in conscious rats with activated RAAS; design: species or system rat; conditions: for Urinary Glucose concentration / Urinary K+ concentration / Urinary Na+ concentration / Urinary Volume/ body weight: Table 4, 24 h urine, mean ± SEM
Procedure: Wistar rats (ca. 250-500 g body weight) were kept with free access to feed (Altromin) and drinking water. […] This sodium-reduced feed causes an activation of the RAAS in the animals during the 3 days run-in phase and therefore mimics a neuroendocrine activation which is characteristic for cardiorenal diseases. […] At the start of the test, the substance to be tested was administered by means of gavage in a volume of 2-3 ml/kg of body weight of a suitable solvent PEG400). Control animals received only solvent (‘S’ or solvent in table 2 below). Controls and substance tests were carried out in parallel on the same day. Control groups and substance-dose groups each consisted of 6 to 10 animals. During the test, the urine excreted by the animals was continuously collected in a receiver on the base of the cage.
In this comparison, eight different administrations were performed (cf. groups A to H):
Group A received the solvent (PEG400) only. This group serves as control group.
Groups B, C and D received three increasing dosages of empagliflozin (SGLT2 inhibitor) only. It serves to detect the effects of the monotherapy with SGLT2 inhibitor.
Group E received a finerenone only. It serves to detect the effect of the monotherapy with finerenone.
Groups F, G and H received finerenone and the three doses of SGLT2 inhibitor in combination, respectively. It serves to detect the effect of the combined therapy with finerenone and empagliflozin (SGLT2 inhibitor) (combination according to the invention).
After the treatment, the urinary volume, urinary glucose, urinary sodium and potassium concentrations were measured.

[2] = tended to increase on day 1 after administration; cited from earlier work
[3] = Table 4 study, monotherapy 10 mg/kg
[4] = Table 4 study, monotherapy: canagliflozin 1 and 3 mg/kg, finerenone 1 mg/kg

## Cc1ccc([C@@H]2O[C@H](CO)[C@@H](O)[C@H](O)[C@H]2O)cc1Cc1ccc(-c2ccc(F)cc2)s1 [canagliflozin, (2S,3R,4R,5S,6R)-2-(3-{[5-(4-fluorophenyl)thiophen-2-yl]methyl}-4-methylphenyl)-6-(hydroxymethyl)oxane-3,4,5-triol]
[1]; monotherapy 1 mg/kg oral
  Urinary Glucose concentration: 2.76 ± 0.36 mmol
  Urinary K+ concentration: 1.86 ± 0.11 mmol
  Urinary Na+ concentration: 0.15 ± 0.03 mmol
  Urinary Volume/ body weight: 0.03108 ± 0.00317 L/kg
[1]; monotherapy 3 mg/kg oral
  Urinary Glucose concentration: 6.94 ± 0.44 mmol
  Urinary K+ concentration: 2.40 ± 0.17 mmol
  Urinary Na+ concentration: 0.21 ± 0.05 mmol
  Urinary Volume/ body weight: 0.04049 ± 0.00243 L/kg
[1]; monotherapy 10 mg/kg oral
  Urinary Glucose concentration: 9.99 ± 0.46 mmol
  Urinary K+ concentration: 2.36 ± 0.15 mmol
  Urinary Na+ concentration: 0.41 ± 0.08 mmol
  Urinary Volume/ body weight: 0.05583 ± 0.00352 L/kg
[1]; [3]
  influence on urinary sodium, in words: increase
  influence on urinary volume, in words: increase
[1]; [4]
  influence on urinary potassium, in words: no influence
  influence on urinary sodium, in words: no influence
  influence on urinary volume, in words: no influence
[1]; Table 4 study, monotherapy: canagliflozin all doses (1, 3, 10 mg/kg), finerenone 1 mg/kg
  influence on urinary glucose, in words: strong increase
[2]
  urinary Na+ excretion, in words: returned to baseline from day 2 to 5
